Assays:
Cyclin K [1] = test: Cyclin K levels by Western blot after single-concentration treatment; format: cell-based, human; conditions: HEK293T cells, 1 μM for 2 h, quantified from Western blots, mean ± SD, three independent experiments
Procedure, shortened: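 Cyclin K quantified by Western blot of HEK293T lysates after a single compound concentration, with ImageJ densitometry normalized to GAPDH. Cells grown in DMEM/10% FBS at 37 °C, 5% CO2.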

HEK293T cells = test: Proteome-wide quantitation by mass spectrometry (TMT); format: cell-based, human; conditions: for log2FC compound 41: 1uM, 2h
CDK12 = molecular target: T1, CDK12 (Homo sapiens, UniProt Q9NYV4); test: KINOMEscan binding assay (Eurofins DiscoverX); conditions: KINOMEscan
T1 construct: purchased Eurofins DiscoverX (KINOMEscan service)
T1 sequence (Q9NYV4 whole entry): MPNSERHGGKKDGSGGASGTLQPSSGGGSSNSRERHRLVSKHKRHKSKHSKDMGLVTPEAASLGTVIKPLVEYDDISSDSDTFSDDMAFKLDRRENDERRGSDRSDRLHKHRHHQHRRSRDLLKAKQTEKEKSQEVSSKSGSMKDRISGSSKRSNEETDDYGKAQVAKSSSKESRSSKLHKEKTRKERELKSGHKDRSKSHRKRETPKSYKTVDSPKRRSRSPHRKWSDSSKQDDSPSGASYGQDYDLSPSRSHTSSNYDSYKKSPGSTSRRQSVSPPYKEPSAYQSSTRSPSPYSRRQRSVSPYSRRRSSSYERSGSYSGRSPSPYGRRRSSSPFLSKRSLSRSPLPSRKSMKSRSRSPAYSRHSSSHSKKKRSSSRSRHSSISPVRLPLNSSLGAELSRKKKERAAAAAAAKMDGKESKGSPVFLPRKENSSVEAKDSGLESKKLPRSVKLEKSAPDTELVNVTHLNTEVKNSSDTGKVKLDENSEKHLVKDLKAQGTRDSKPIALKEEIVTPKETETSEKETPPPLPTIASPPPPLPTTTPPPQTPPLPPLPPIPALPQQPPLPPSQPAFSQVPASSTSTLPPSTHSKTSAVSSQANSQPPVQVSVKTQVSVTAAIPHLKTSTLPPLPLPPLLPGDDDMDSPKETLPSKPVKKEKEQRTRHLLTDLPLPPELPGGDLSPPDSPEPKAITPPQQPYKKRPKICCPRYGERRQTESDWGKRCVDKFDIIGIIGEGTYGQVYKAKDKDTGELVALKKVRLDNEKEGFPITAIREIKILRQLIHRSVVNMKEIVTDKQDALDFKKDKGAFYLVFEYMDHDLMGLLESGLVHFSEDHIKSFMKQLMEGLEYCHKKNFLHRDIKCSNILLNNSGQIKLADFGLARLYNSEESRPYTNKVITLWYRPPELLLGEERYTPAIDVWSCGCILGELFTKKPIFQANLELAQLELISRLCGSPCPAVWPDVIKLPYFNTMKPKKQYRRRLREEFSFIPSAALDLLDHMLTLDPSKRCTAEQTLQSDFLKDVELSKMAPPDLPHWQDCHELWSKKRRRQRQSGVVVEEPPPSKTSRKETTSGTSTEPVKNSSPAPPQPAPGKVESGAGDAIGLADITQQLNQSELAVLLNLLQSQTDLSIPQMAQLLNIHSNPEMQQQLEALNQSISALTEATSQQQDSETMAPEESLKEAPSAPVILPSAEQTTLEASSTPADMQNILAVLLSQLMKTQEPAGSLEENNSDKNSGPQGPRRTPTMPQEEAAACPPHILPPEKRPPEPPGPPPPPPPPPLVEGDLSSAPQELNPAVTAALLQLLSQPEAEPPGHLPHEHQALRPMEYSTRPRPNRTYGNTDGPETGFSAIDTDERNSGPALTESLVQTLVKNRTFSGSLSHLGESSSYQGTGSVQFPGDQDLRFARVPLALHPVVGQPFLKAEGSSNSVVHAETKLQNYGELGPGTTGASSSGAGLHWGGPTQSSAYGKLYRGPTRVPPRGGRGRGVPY

Cyclin K [2] = test: Cyclin K degradation concentration-response (DC50, DMax) by Western blot; format: cell-based, human; conditions: HEK293T, Western blot quantification, 3 biological repeats
Procedure, shortened: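 HEK293T cells treated across a concentration range; lysates immunoblotted for Cyclin K with GAPDH as loading control, ECL detection. Band intensities quantified, Cyclin K normalized to GAPDH, and DC50 derived by 4-parameter nonlinear regression of concentration–response curves.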

SMILES: O=C(NCc1ccc(C2=CCOCC2)cc1)c1n[nH]cc1NC(=O)c1c(Cl)cccc1Cl [compound 41]
- Remaining Cyclin K (%) (Cyclin K [1]): 3 ± 1%
- log2FC compound 41 (HEK293T cells): 1.1108
- number of proteins showing at least a −0.5 log2 fold change (HEK293T cells; HEK293T, 1 μM, 2 h treatment): 33 proteins
- log2FC compound 41 (HEK293T cells; protein AKR7A2 (Aflatoxin B1 aldehyde reductase member 2, O43488)): -0.7339
- log2FC compound 41 (HEK293T cells; protein ALG10 (Dol-P-Glc:Glc(2)Man(9)GlcNAc(2)-PP-Dol alpha-1,2-glucosyltransferase, Q5BKT4)): 0.9798
- log2FC compound 41 (HEK293T cells; protein ALKBH2 (DNA oxidative demethylase ALKBH2, Q6NS38)): 0.728
- log2FC compound 41 (HEK293T cells; protein ARF4 (ADP-ribosylation factor 4, P18085)): 0.7714
- log2FC compound 41 (HEK293T cells; protein ATP6AP1 (V-type proton ATPase subunit S1, Q15904)): 0.6251
- log2FC compound 41 (HEK293T cells; protein B3GLCT (Beta-1,3-glucosyltransferase, Q6Y288)): 0.6029
- log2FC compound 41 (HEK293T cells; protein BTF3L4 (Transcription factor BTF3 homolog 4, Q96K17)): 0.5924
- log2FC compound 41 (HEK293T cells; protein C1orf167 (Uncharacterized protein C1orf167, Q5SNV9)): 1.3705
- log2FC compound 41 (HEK293T cells; protein CCNK (Cyclin-K, O75909)): -1.4213
- log2FC compound 41 (HEK293T cells; protein CD9 (CD9 antigen, P21926)): 0.6995
- log2FC compound 41 (HEK293T cells; protein CD59 (CD59 glycoprotein, P13987)): 1.3635
- log2FC compound 41 (HEK293T cells; protein CD63 (CD63 antigen, P08962)): 1.3469
- log2FC compound 41 (HEK293T cells; protein CD151 (CD151 antigen, P48509)): 0.7942
- log2FC compound 41 (HEK293T cells; protein CDKL5 (Cyclin-dependent kinase-like 5, O76039)): 1.2994
- log2FC compound 41 (HEK293T cells; protein CENPW (Centromere protein W, Q5EE01)): 0.6212
- log2FC compound 41 (HEK293T cells; protein CERS1 (Ceramide synthase 1, P27544)): 0.5956
- log2FC compound 41 (HEK293T cells; protein CHCHD1 (Coiled-coil-helix-coiled-coil-helix domain-containing protein 1, Q96BP2)): -0.843
- log2FC compound 41 (HEK293T cells; protein CHCHD2 (Coiled-coil-helix-coiled-coil-helix domain-containing protein 2, Q9Y6H1)): -0.961
- log2FC compound 41 (HEK293T cells; protein CNOT8 (CCR4-NOT transcription complex subunit 8, Q9UFF9)): 0.5912
- log2FC compound 41 (HEK293T cells; protein COA7 (Cytochrome c oxidase assembly factor 7, Q96BR5)): -0.7413
- log2FC compound 41 (HEK293T cells; protein COPRS (Coordinator of PRMT5 and differentiation stimulator, Q9NQ92)): 0.7957
- log2FC compound 41 (HEK293T cells; protein COX6B1 (Cytochrome c oxidase subunit 6B1, P14854)): 0.7689
- log2FC compound 41 (HEK293T cells; protein COX7A2 (Cytochrome c oxidase subunit 7A2, mitochondrial, P14406)): -1.7055
- log2FC compound 41 (HEK293T cells; protein CSNK2B (Casein kinase II subunit beta, P67870)): 0.62
- log2FC compound 41 (HEK293T cells; protein CTSV (Cathepsin L2, O60911)): 0.7835
- log2FC compound 41 (HEK293T cells; protein DCDC1 (Doublecortin domain-containing protein 1, M0R2J8)): 1.8264
- log2FC compound 41 (HEK293T cells; protein DHX58 (Probable ATP-dependent RNA helicase DHX58, Q96C10)): 1.0451
- log2FC compound 41 (HEK293T cells; protein DNAJC5 (DnaJ homolog subfamily C member 5, Q9H3Z4)): 0.994
- log2FC compound 41 (HEK293T cells; protein DNPEP (Aspartyl aminopeptidase, Q9ULA0)): 0.6304
- log2FC compound 41 (HEK293T cells; protein DYNLL1 (Dynein light chain 1, cytoplasmic, P63167)): -0.6985
- log2FC compound 41 (HEK293T cells; protein ECI1 (Enoyl-CoA delta isomerase 1, mitochondrial, P42126)): 0.8277
- log2FC compound 41 (HEK293T cells; protein EI24 (Etoposide-induced protein 2.4 homolog, O14681)): 0.8122
- log2FC compound 41 (HEK293T cells; protein EIF5A2 (Eukaryotic translation initiation factor 5A-2, Q9GZV4)): 1.4183
- log2FC compound 41 (HEK293T cells; protein ELP5 (Elongator complex protein 5, Q8TE02)): 0.6971
- log2FC compound 41 (HEK293T cells; protein ERGIC3 (Endoplasmic reticulum-Golgi intermediate compartment protein 3, Q9Y282)): -0.6608
- log2FC compound 41 (HEK293T cells; protein FAM219A (Protein FAM219A, Q8IW50)): 0.6921
- log2FC compound 41 (HEK293T cells; protein FAM234A (Protein FAM234A, Q9H0X4)): 0.9598
- log2FC compound 41 (HEK293T cells; protein GGH (Gamma-glutamyl hydrolase, Q92820)): 0.639
- log2FC compound 41 (HEK293T cells; protein GNA15 (Guanine nucleotide-binding protein subunit alpha-15, P30679)): 1.1022
- log2FC compound 41 (HEK293T cells; protein GYG2 (Glycogenin-2, O15488)): 0.8256
- log2FC compound 41 (HEK293T cells; protein H2AC6 (Histone H2A type 1-C, Q93077)): -2.3143
- log2FC compound 41 (HEK293T cells; protein H2AC14 (Histone H2A type 1-J, Q99878)): -2.3989
- log2FC compound 41 (HEK293T cells; protein HMGN2 (Non-histone chromosomal protein HMG-17, P05204)): -0.8432
- log2FC compound 41 (HEK293T cells; protein HNRNPA2B1 (Heterogeneous nuclear ribonucleoproteins A2/B1, P22626)): -0.5885
- log2FC compound 41 (HEK293T cells; protein HSPB11 (Intraflagellar transport protein 25 homolog, Q9Y547)): 0.7236
- log2FC compound 41 (HEK293T cells; protein KCTD1 (BTB/POZ domain-containing protein KCTD1, Q719H9)): 0.9367
- log2FC compound 41 (HEK293T cells; protein KIAA0930 (Uncharacterized protein KIAA0930, Q6ICG6)): 0.6862
- log2FC compound 41 (HEK293T cells; protein KIAA1549 (UPF0606 protein KIAA1549, Q9HCM3)): 0.7226
- log2FC compound 41 (HEK293T cells; protein LIPA (Lysosomal acid lipase/cholesteryl ester hydrolase, P38571)): 0.766
- log2FC compound 41 (HEK293T cells; protein LIPT2 (Putative lipoyltransferase 2, mitochondrial, A6NK58)): -0.7183
- log2FC compound 41 (HEK293T cells; protein LPCAT3 (Lysophospholipid acyltransferase 5, Q6P1A2)): 1.5824
- log2FC compound 41 (HEK293T cells; protein LPIN2 (Phosphatidate phosphatase LPIN2, Q92539)): 0.7762
- log2FC compound 41 (HEK293T cells; protein LSM1 (U6 snRNA-associated Sm-like protein LSm1, O15116)): 1.1318
- log2FC compound 41 (HEK293T cells; protein MEIS1 (Homeobox protein Meis1, O00470)): -0.7006
- log2FC compound 41 (HEK293T cells; protein MGARP (Protein MGARP, Q8TDB4)): 0.8294
- log2FC compound 41 (HEK293T cells; protein MKRN1 (E3 ubiquitin-protein ligase makorin-1, Q9UHC7)): 0.6085
- log2FC compound 41 (HEK293T cells; protein MRPL24 (39S ribosomal protein L24, mitochondrial, Q96A35)): -0.8105
- log2FC compound 41 (HEK293T cells; protein MSMO1 (Methylsterol monooxygenase 1, Q15800)): 0.6949
- log2FC compound 41 (HEK293T cells; protein MT-ND4 (NADH-ubiquinone oxidoreductase chain 4, P03905)): 0.7038
- log2FC compound 41 (HEK293T cells; protein NCBP2AS2 (Protein NCBP2AS2, Q69YL0)): -0.5975
- log2FC compound 41 (HEK293T cells; protein NIPA2 (Magnesium transporter NIPA2, Q8N8Q9)): 0.8891
- log2FC compound 41 (HEK293T cells; protein NSMCE4A (Non-structural maintenance of chromosomes element 4 homolog A, Q9NXX6)): 0.6459
- log2FC compound 41 (HEK293T cells; protein NXT2 (NTF2-related export protein 2, Q9NPJ8)): 1.4453
- log2FC compound 41 (HEK293T cells; protein ORC4 (Origin recognition complex subunit 4, O43929)): 0.6334
- log2FC compound 41 (HEK293T cells; protein OSTC (Oligosaccharyltransferase complex subunit OSTC, Q9NRP0)): 0.6129
- log2FC compound 41 (HEK293T cells; protein POP5 (Ribonuclease P/MRP protein subunit POP5, Q969H6)): 0.6256
- log2FC compound 41 (HEK293T cells; protein PPP1CB (Serine/threonine-protein phosphatase PP1-beta catalytic subunit, P62140)): -0.8644
- log2FC compound 41 (HEK293T cells; protein PRPF38A (Pre-mRNA-splicing factor 38A, Q8NAV1)): 0.6341
- log2FC compound 41 (HEK293T cells; protein RBX1 (E3 ubiquitin-protein ligase RBX1, P62877)): 0.6251
- log2FC compound 41 (HEK293T cells; protein RER1 (Protein RER1, O15258)): 0.5922
- log2FC compound 41 (HEK293T cells; protein RPS29 (40S ribosomal protein S29, P62273)): -1.1057
- log2FC compound 41 (HEK293T cells; protein SDHAF4 (Succinate dehydrogenase assembly factor 4, mitochondrial, Q5VUM1)): 0.8419
- log2FC compound 41 (HEK293T cells; protein SEC11C (Signal peptidase complex catalytic subunit SEC11C, Q9BY50)): -0.5851
- log2FC compound 41 (HEK293T cells; protein SERINC3 (Serine incorporator 3, Q13530)): 0.6778
- log2FC compound 41 (HEK293T cells; protein SIAE (Sialate O-acetylesterase, Q9HAT2)): 0.753
- log2FC compound 41 (HEK293T cells; protein SLC25A17 (Peroxisomal membrane protein PMP34, O43808)): 1.1015
- log2FC compound 41 (HEK293T cells; protein SLC44A2 (Choline transporter-like protein 2, Q8IWA5)): 1.0845
- log2FC compound 41 (HEK293T cells; protein SPCS1 (Signal peptidase complex subunit 1, Q9Y6A9)): 0.6654
- log2FC compound 41 (HEK293T cells; protein STEAP2 (Metalloreductase STEAP2, Q8NFT2)): 0.6125
- log2FC compound 41 (HEK293T cells; protein SURF4 (Surfeit locus protein 4, O15260)): 0.8751
- log2FC compound 41 (HEK293T cells; protein TECR (Very-long-chain enoyl-CoA reductase, Q9NZ01)): 0.5914
- log2FC compound 41 (HEK293T cells; protein TMCC3 (Transmembrane and coiled-coil domain protein 3, Q9ULS5)): 0.6529
- log2FC compound 41 (HEK293T cells; protein TMED5 (Transmembrane emp24 domain-containing protein 5, Q9Y3A6)): 0.6722
- log2FC compound 41 (HEK293T cells; protein TMEM41A (Transmembrane protein 41A, Q96HV5)): 0.881
- log2FC compound 41 (HEK293T cells; protein TMSB4X (Thymosin beta-4, P62328)): -1.1542
- log2FC compound 41 (HEK293T cells; protein TVP23C (Golgi apparatus membrane protein TVP23 homolog C, Q96ET8)): 0.698
- log2FC compound 41 (HEK293T cells; protein UBE2R2 (Ubiquitin-conjugating enzyme E2 R2, Q712K3)): -0.7129
- log2FC compound 41 (HEK293T cells; protein WHAMM (WASP homolog-associated protein with actin, membranes and microtubules, Q8TF30)): -0.8329
- log2FC compound 41 (HEK293T cells; protein XPOT (Exportin-T, O43592)): 0.6641
- log2FC compound 41 (HEK293T cells; protein ZBTB17 (Zinc finger and BTB domain-containing protein 17, Q13105)): 1.0947
- Kd (CDK12): 3.8 µM
- DMax (%) (Cyclin K [2]): >95%
- DC50 (Cyclin K [2]; read-out: CycK DC50): 0.141 µM

— PMC10804372, “Degradation by Design: New Cyclin K Degraders from Old CDK Inhibitors” (ACS Chemical Biology, 2024)
